A word on the EC50: it is the concentration giving half of the maximal effect. Read a low EC50 as an effect from little substance. A word on the inhibition: it is how much of the control response was suppressed. Lower therefore signals a weak effect. One may read the IC50 as the concentration that gives 50% inhibition.

SMILES strings stand for the structures.

In one assay the test system is MCF7 cells. As to the kind of experiment: Cell proliferation assay (ATPlite), MCF-7. Format: cell-based, human. The conditions noted are these: Homo sapiens, inhibition of cell proliferation, 72 h. An outline of the steps: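 Cells seeded (MCF-7 2000/well, HG-1 1000/well in RPMI with 2 ng/ml IL-6), then after 24 h exposed to compound at 0.5% DMSO final for 72 h. Proliferation read as ATP luminescence (ATPlite); EC50 calculated from the dose-response.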

Assay [1] deals with HIF mediated transcription. Description: Inhibition of activation of HIF mediated transcription under hypoxic conditions (CellSensor HRE-bla HCT-116). As to conditions: Homo sapiens; HRE-bla HCT-116 cells, deferoxamine-induced hypoxia, 24 h. Format: cell-based. Here is the method: Inhibition of an activated HIF signaling response under chemically-induced hypoxic conditions due to compound treatment was determined using the CellSensor® HRE-bla HCT-116 stably transfected reporter cell line from Invitrogen according to the manufacturer's instructions. HIF is a transcriptional factor composed of the constitutively expressed HIF1β subunit and one of three HIFα subunits (HIF1α, HIF2α, HIF3α). This assay is responsive towards HIFa activity in general. In one example, HIF-1, when stabilized by hypoxic conditions, upregulates several genes to promote cell survival in low-oxygen conditions. These include glycolysis enzymes, which allow ATP synthesis in an oxygen-independent manner, and vascular endothelial growth factor (VEGF), which promotes angiogenesis. HIF-1 acts by binding to HIF-responsive elements (HREs) in promoters that generally contain the sequence NCGTG.
Cells were maintained as described previously and seeded into 384-well, clear-bottom plates (Corning 3712) at 15000 cells/well in 32 μl assay medium (Opti-MEM [Invitrogen], 0.5% FBS, 100 U/ml penicillin, 100 μg/ml streptomycin, 0.1 mM non-essential amino acids [NEAA], 1 mM sodium pyruvate, 5 mM HEPES [pH 7.3]). Following a 2 h incubation period, compounds (4 μl) were subsequently added to the cells at 10× concentrations in 5% DMSO and incubated under normal conditions for 30 min. To induce hypoxic conditions, 4 μl of a 2 mM deferoxamine (DFO) solution was added to the cells followed by 24 h incubation under standard assay conditions (as described). Control wells included wells containing only medium (no cells) and wells treated with 0.5% DMSO instead of compound.
Prior to the readout, the Substrate Loading Solution was prepared as described in the manufacturer's protocol and 10 μl added to each well. Following a further 2 h incubation period at room temperature and in the dark, fluorescence was measured at two wavelengths (blue channel: ex. 409 nm, em. 460 nm; green channel: ex. 409 nm, em. 530 nm) on a PerkinElmer Envision HTS. For the analysis, the average signal of the cell-free wells at 460 nm and 530 nm was first subtracted from the blue and green channel data, respectively. The blue/green emission ratios were then calculated for each well, dividing the background-corrected blue emission values by the background-corrected green emission values. IC50 values were determined from these ratios using GraphPad Prism (Prism 5, GraphPad software, Inc.).

The target of another assay is T1, tubulin (Sus scrofa, UniProt P02550+P02554).
T1 construct: prepared in-house from porcine brain using a standard procedure involving cycles of polymerization/de-polymerization; from tissue; host or cells: porcine brain
Description: Inhibition of in vitro tubulin polymerization. In kind it is biochemical, porcine. The conditions noted are these: final absorbance 340 nm at 90 min. The method, then:
To assess the degree of inhibition of in vitro tubulin polymerization, a tubulin solution (prepared in-house from porcine brain using a standard procedure involving cycles of polymerization/de-polymerization, see Castoldi & Popov (2003) Protein Expr. Purif. 32(1): 83-88) was incubated with varying concentrations of compounds under polymerizing conditions and kinetic experiments performed to determine the amount of polymerization (as measured by changes in OD at 340 nm) taking place over a 90 min period.
Compound solutions were diluted in double-distilled water to yield final 10× solutions containing 5% DMSO. 5 μl solutions were then added to the wells on a 384-well clear-bottom plate (Corning #3711, Corning Inc.) in preparation for the addition of tubulin. The tubulin solution (19.6 mg/ml, in 80 mM K-PIPES [pH 6.8], 1 mM MgCl2, 1 mM EGTA) was re-suspended to a final concentration of 4 mg/ml with ice cold G-PEM buffer (80 mM PIPES [pH 6.8], 2 mM MgCl2, 0.5 mM EGTA, 10% glycerol, 1 mM GTP) and maintained on ice for at least 1 min. 50 μl was then added to the pre-dispensed compound solutions, the plate orbital shaken on a medium setting for 5 s, and the first measurement begun immediately.
Experiments were carried out on a Safire^2™ monochromator (Tecan) preset to a stable temperature of 37° C.; the degree of polymerization was determined by measuring the absorbance of the solutions at 340 nm every minute over the 90 min cycle. Reported inhibition values were based on the final absorbance at 90 min and calculated with reference to a vehicle control (0.5% DMSO) using the minimum and maximum signals obtained for this sample.

Assay [2] concerns estrogen receptor (ER)-mediated transcriptional activity. Description: Inhibition of estrogen receptor (ER) signaling, ERE-tk-luc transfection assay in MCF-7 cells. Format: cell-based. The conditions noted are these: Homo sapiens, MCF7, ERE-tk-luc luciferase readout, 24 h. The method, then: To determine the effect of the compounds on estrogen receptor (ER)-mediated transcriptional activity a transfection assay using the MCF-7 cell line was performed. A luciferase-coupled ERE-tk-luc construct was obtained from Dr. G. Reid (EMBL).
In brief, MCF-7 cells were maintained as described previously and seeded on the first experimental day at a concentration of 3500 cells/well in 100 μl medium and incubated under standard conditions for 24 h. Following this initial incubation period, transfection was carried out using 5 ng of the ERE-tk-luc construct (per well) and Exgene 500 transfection reagent (Fermentas) in a final buffered solution containing 150 mM NaCl and 20 mM Tris pH 8.4. The plates were then maintained for 3-4 hours until cell culture conditions in the incubator before compounds were added at 11× concentrations to yield the final desired compound concentrations in 0.5% DMSO (in the same manner as for the proliferation assays described previously).
After an additional 24 h incubation period the degree of inhibition of ER-signaling was determined via a luciferase readout. Cells were treated with Britelite™ plus solution according to the manufacturer's instructions (PerkinElmer, britelite plus, Ultra-High Sensitivity Luminescence Reporter Gene Assay System) and luciferase levels measured on an Envision HTS multilabel plate reader (PerkinElmer) in luminescence mode according to established protocols. Raw data were imported into an ActivityBase database (IDBS, ID Business Solutions) and IC50 values calculated using the IDBS program ActivityBase XE.

The subject of the next assay is HG1 cells. Description: Cell proliferation assay (ATPlite), HG-1. Format: cell-based. As to conditions: inhibition of cell proliferation, 72 h. The method, then:
MCF-7 human breast adenocarcinoma cells and HL-60 acute promyelocytic leukaemia cells were obtained from ATCC (LGC Promochem). HG-1 multiple myeloma cells were obtained from Dr. D. Hose (DKFZ Heidelberg). The CellSensor® HRE-bla HCT116 cell line (colorectal carcinoma) was obtained from Invitrogen.
Cells were grown under humidified 95% air, 5% CO2 at 37° C. in Dulbecco's modified Eagle's medium (DMEM: MCF-7) or RPMI 1640 medium (RPMI: HL-60, HG-1) supplemented with 10% fetal bovine serum (FBS), 100 U/ml penicillin and 100 μg/ml streptomycin, 2 mM L-glutamine, and 2 ng/ml IL-6 (for the HG-1 cell line only). The HCT116 cell line was grown under the same atmospheric conditions in McCoy's 5A medium supplemented with 10% FBS and penicillin/streptomycin as above, in addition to blasticidin as a selection marker at a final concentration of 5 μg/ml.
Cell proliferation experiments were carried out in 96-well tissue culture plates with seeding of 2000 cells/well (MCF-7) or 1000 cells/well (HL-60, HG-1) in 100 μl of the relevant medium. Cells were subsequently incubated under the conditions mentioned for 24 h prior to addition of compounds.
For the determination of compound EC50 values, 10 μl compounds at 11× concentrations in 5.5% DMSO were added to the wells at various concentrations yielding a final constant percentage of 0.5% DMSO at the desired 1× compound concentration. As a positive control, cells were treated with 5.5% DMSO. The cells were then incubated for a further 72 h prior to the measurement.
To determine the degree of inhibition of cell proliferation, cells were treated with ATPlite solution according to the manufacturer's instructions (PerkinElmer, ATPlite 1-step Luminescence ATP Detection Assay System) and luciferase readout measured on an Envision HTS multilabel plate reader (PerkinElmer) in luminescence mode according to established protocols. Raw data were imported into an ActivityBase database (IDBS, ID Business Solutions) and EC50 values calculated using the IDBS program ActivityBase XE. Table 2A and 2B show the IC50 values obtained in the above-outlined cell proliferation assay for exemplary compounds of the invention.

T1 sequence (P02550 whole entry): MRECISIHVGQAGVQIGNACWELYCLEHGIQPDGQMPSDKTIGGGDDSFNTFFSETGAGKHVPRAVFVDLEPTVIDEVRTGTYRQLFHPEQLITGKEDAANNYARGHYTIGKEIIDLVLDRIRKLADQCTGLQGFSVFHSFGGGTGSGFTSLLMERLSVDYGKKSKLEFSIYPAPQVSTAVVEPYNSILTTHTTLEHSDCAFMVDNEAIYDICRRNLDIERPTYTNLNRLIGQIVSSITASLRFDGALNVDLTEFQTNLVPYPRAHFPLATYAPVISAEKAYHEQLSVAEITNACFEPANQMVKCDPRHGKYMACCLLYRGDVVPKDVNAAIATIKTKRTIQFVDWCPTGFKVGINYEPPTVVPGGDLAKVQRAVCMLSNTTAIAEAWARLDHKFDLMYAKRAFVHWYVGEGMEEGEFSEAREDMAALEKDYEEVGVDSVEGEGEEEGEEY
T1 sequence (P02554 whole entry): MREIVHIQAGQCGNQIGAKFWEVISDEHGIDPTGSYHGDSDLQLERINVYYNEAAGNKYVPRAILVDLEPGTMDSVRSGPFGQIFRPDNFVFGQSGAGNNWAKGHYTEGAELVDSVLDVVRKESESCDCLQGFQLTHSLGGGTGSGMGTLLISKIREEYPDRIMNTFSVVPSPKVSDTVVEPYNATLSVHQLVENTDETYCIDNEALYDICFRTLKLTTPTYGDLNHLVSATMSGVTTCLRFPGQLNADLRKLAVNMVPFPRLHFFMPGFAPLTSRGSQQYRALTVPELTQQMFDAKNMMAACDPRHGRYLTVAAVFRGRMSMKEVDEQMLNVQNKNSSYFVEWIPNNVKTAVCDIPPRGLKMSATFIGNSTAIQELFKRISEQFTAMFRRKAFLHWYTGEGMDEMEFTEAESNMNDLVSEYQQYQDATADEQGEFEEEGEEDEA

Regarding `Cc1ccc(S(=O)(=O)Nc2cc(-c3ccc(C)o3)ccc2C)cc1` [Example 3, 4-Methyl-N-[2-methyl-5-(5-methyl-furan-2-yl)-phenyl]-benzenesulfonamide], the EC50 (in the assay on MCF7 cells; in assay [1]) was below 500 nM in each case. On tubulin, this compound yielded an inhibition at 10 µM above 50%.
`Cc1ccc(S(=O)(=O)Nc2cc(-c3ccoc3)ccc2C)cc1` [Example 5, N-(5-Furan-3-yl-2-methyl-phenyl)-4-methyl-benzenesulfonamide] came in with an IC50 in assay [2] below 500 nM. The EC50 in the assay with MCF7 cells was below 500 nM.
Consider `Cc1ccc(S(=O)(=O)Nc2cc(-c3ccsc3)ccc2C)cc1` [Example 8, 4-Methyl-N-(2-methyl-5-thiophen-3-yl-phenyl)-benzenesulfonamide], for which the concentration giving a half-maximal response (EC50) (in the assay on HG1 cells; in the assay on MCF7 cells; in assay [1]) was below 500 nM throughout.
Regarding `Cc1ccc(S(=O)(=O)Nc2cc(-c3ccc(C)s3)ccc2C)cc1` [Example 11, 4-Methyl-N-[2-methyl-5-(5-methyl-thiophen-2-yl)-phenyl]-benzenesulfonamide], the concentration giving a half-maximal response (EC50) in the assay with MCF7 cells was below 500 nM. Moreover, the inhibition at 10 µM against tubulin was 20 to 50%.
In assay [2], `Cc1ccc(S(=O)(=O)Nc2cc(-n3cccc3)ccc2C)cc1` [Example 15, 4-Methyl-N-(2-methyl-5-pyrrol-1-yl-phenyl)-benzenesulfonamide] came in with an IC50 below 500 nM. Besides, the concentration giving a half-maximal response (EC50) in the assay with HG1 cells and in the assay with MCF7 cells was below 500 nM in each case.
The compound `COc1ccc(S(=O)(=O)Nc2cc(-c3c(C)noc3C)ccc2C)cc1` [Example 16, N-[5-(3,5-Dimethyl-isoxazol-4-yl)-2-methyl-phenyl]-4-methoxy-benzenesulfonamide] came in with a 50% effective concentration (EC50) in the assay with MCF7 cells below 500 nM. The compound also yielded an inhibition at 10 µM at tubulin of 20 to 50%.
On to `Cc1ccc(S(=O)(=O)Nc2cc(-c3ccccn3)ccc2C)cc1` [Example 19, 4-Methyl-N-(2-methyl-5-pyridin-2-yl-phenyl)-benzenesulfonamide], for which the 50% effective concentration (EC50) in the assay on HG1 cells was below 500 nM; in the assay with MCF7 cells it was 500 to 1000 nM.
Regarding `Cc1ccc(S(=O)(=O)Nc2cc(-n3cnnc3)ccc2C)cc1` [Example 22, 4-Methyl-N-(2-methyl-5-[1,2,4]triazol-4-yl-phenyl)-benzenesulfonamide], the EC50 is below 500 nM in the assay with HG1 cells and 1000 to 10000 nM with MCF7 cells.
On to `Cc1ccc(S(=O)(=O)Nc2cc(-c3cscc3C)ccc2C)cc1` [Example 23, 4-Methyl-N-[2-methyl-5-(4-methyl-thiophen-3-yl)-phenyl]-benzenesulfonamide], for which the EC50 (in the assay with MCF7 cells; in assay [1]) was below 500 nM throughout. The compound also had an inhibition at 10 µM at tubulin above 50%.
In turn, `Cc1ccc(S(=O)(=O)Nc2cc(-c3ccc(C#N)cn3)ccc2C)cc1` [Example 43, N-[5-(5-Cyano-pyridin-2-yl)-2-methyl-phenyl]-4-methyl-benzenesulfonamide] displayed an IC50 in assay [2] below 500 nM. Further, the EC50 (in the assay with MCF7 cells; in assay [1]) was below 500 nM each time.
As to `COc1ccc(S(=O)(=O)Nc2cc(-c3ccc(C#N)cn3)ccc2C)cc1` [Example 49, N-[5-(5-Cyano-pyridin-2-yl)-2-methyl-phenyl]-4-methoxy-benzenesulfonamide], the IC50 in assay [2] is below 500 nM. For the same compound, the EC50 in the assay on MCF7 cells was below 500 nM.
`Cc1ccc(S(=O)(=O)Nc2cc(-c3ccc(C#N)c(C)c3)ccc2C)cc1` [Example 72, N-(4′-Cyano-4,3′-dimethyl-biphenyl-3-yl)-4-methyl-benzenesulfonamide]: the IC50 in assay [2] is below 500 nM. The EC50 in the assay on MCF7 cells was below 500 nM. The same compound returned an inhibition at 10 µM at tubulin below 20%.
As for `COc1ccc(S(=O)(=O)Nc2cc(-c3csc(C#N)c3)ccc2C)cc1` [Example 73, N-[5-(5-Cyano-thiophen-3-yl)-2-methyl-phenyl]-4-methoxy-benzenesulfonamide], the EC50 (in the assay with HG1 cells; with MCF7 cells; in assay [1]) was below 500 nM throughout.
